Measurements as given in patent publication US11147272B2, “Pyridone compounds and agricultural and horticultural fungicides comprising the same as active ingredients” (MITSUI CHEMICALS AGRO, INC., priority 2017, dated 2021).
Where two headings read alike, the source gives them in different places.

Experiments:
[1] = system: Plasmopara viticola; assay: Test Example G: Downy mildew on vine; details: Plasmopara viticola, topical
[2] = system: Colletotrichum orbiculare; assay: Test Example H: Anthracnose on cucumber; details: Colletotrichum orbiculare, in Cucumis sativus, topical
[3] = system: Magnaporthe grisea; assay: whole plant or invertebrate; assay type: in vivo; details: Pyricularia oryzae, in Oryza sativa
[4] = system: Phytophthora infestans; assay: whole plant or invertebrate; assay type: in vivo; details: Phytophthora infestans, in Solanum lycopersicum, topical
[5] = system: Alternaia brassicicola; assay: Test Example C: Alternaria sooty spot on cabbage; assay type: in vivo; details: topical; for pest or weed control at 250 µg/mL: Brassica oleracea, Alternaria sooty spot on cabbage; for pest or weed control at 250 ppm: 250 ppm drug solution sprayed on test plant
Excerpt: Seeds of a test plant (cabbage variety: Shikidori) were planted and cultivated until the cotyledons extended.
<Control Value> Control value=100{1−(n/3)}

[6] = system: Botrytis cinerea; assay: Test Example B: Gray mold on tomato; details: Botrytis cinerea, in Solanum lycopersicum, topical
[7] = system: Blumeria graminis f. sp. hordei; assay: Test Example D: Powdery mildew on barley; details: Blumeria graminis, in Hordeum vulgare, topical
[8] = system: Puccinia recondita; assay: Test Example E: Brown rust on wheat; assay type: in vivo; details: Puccinia recondita, topical; for pest or weed control at 250 µg/mL: Brown rust on wheat; for pest or weed control at 250 ppm: 250 ppm drug solution sprayed on test plant
[9] = 168 h, read-out: Test G control value
[10] = 144 h, read-out: Test H control value
[11] = control value class, read-out: Test C control value
[12] = control value class, read-out: Test E control value

| Compound | pest or weed control at 250 ppm [1, 9] | pest or weed control at 250 ppm [2, 10] | pest or weed control at 250 µg/mL ([3]; read-out: Test A control value) | pest or weed control at 250 µg/mL ([4]; read-out: Test F control value) | pest or weed control at 250 µg/mL [5, 11] | pest or weed control at 250 µg/mL ([6]; read-out: Test B control value) | pest or weed control at 250 µg/mL ([7]; read-out: Test D control value) | pest or weed control at 250 µg/mL [8, 12] | pest or weed control at 250 ppm ([3]; read-out: Test A control value) | pest or weed control at 250 ppm ([4]; read-out: Test F control value) | pest or weed control at 250 ppm [5] | pest or weed control at 250 ppm ([6]; read-out: Test B control value) | pest or weed control at 250 ppm ([7]; read-out: Test D control value) | pest or weed control at 250 ppm [8] | further results |
| --- | --- | --- | --- | --- | --- | --- | --- | --- | --- | --- | --- | --- | --- | --- | --- |
| CCn1c(-c2c(F)cccc2F)c(C(C)(O)C(C)C)cc(Cl)c1=O (stereo not drawn) [Compound No. 183, 3-chloro-6-(2,6-difluorophenyl)-1-ethyl-5-(2-hydroxy-3-methylbutan-2-yl)pyridin-2(1H)-one] |  |  |  |  |  |  |  |  |  |  |  |  |  |  | pest or weed control at 250 ppm ([1]; read-out: Test G control value class): > 50%; pest or weed control at 250 ppm ([2]; read-out: Test H control value class): > 50%; pest or weed control at 250 µg/mL ([3]; read-out: Test A control value class): > 50%; pest or weed control at 250 µg/mL ([4]; read-out: Test F control value class): > 50%; pest or weed control at 250 µg/mL ([5]; class of control value, read-out: Test C control value class): > 50%; pest or weed control at 250 µg/mL ([6]; read-out: Test B control value class): > 50%; pest or weed control at 250 µg/mL ([7]; read-out: Test D control value class): > 50%; pest or weed control at 250 µg/mL ([8]; class of control value, read-out: Test E control value class): > 50% |
| CCn1c(-c2c(F)cccc2F)c(C(C)(OC)C(C)C)cc(Cl)c1=O (stereo not drawn) [Compound No. 187, 3-chloro-6-(2,6-difluorophenyl)-1-ethyl-5-(2-methoxy-3-methylbutan-2-yl)pyridin-2(1H)-one] | > 50% | > 50% | > 50% | < 50% | > 50% | > 50% | > 50% | > 50% |  |  |  |  |  |  |  |
| CCn1c(-c2c(F)cc(F)cc2F)c(C=O)cc(Cl)c1=O [Compound No. 289, 5-chloro-1-ethyl-6-oxo-2-(2,4,6-trifluorophenyl)-1,6-dihydropyridine-3-carbaldehyde] | < 50% | > 50% | < 50% | < 50% | > 50% | > 50% | < 50% | > 50% |  |  |  |  |  |  |  |
| CCn1c(-c2ccc(F)cc2Cl)c(C=C(C)C)cc(Cl)c1=O [Compound No. 300, 3-chloro-6-(2-chloro-4-fluorophenyl)-1-ethyl-5-(2-methyl-1-propenyl)pyridin-2(1H)-one] | < 50% | > 50% | > 50% | < 50% | > 50% | > 50% | > 50% | > 50% |  |  |  |  |  |  |  |
| CCCc1cc(Br)c(=O)n(C)c1-c1ccc(F)cc1Cl [Compound No. 333, 3-bromo-6-(2-chloro-4-fluorophenyl)-1-methyl-5-propylpyridin-2(1H)-one] | < 50% | > 50% | > 50% | < 50% | > 50% | > 50% | < 50% | > 50% |  |  |  |  |  |  |  |
| CCCc1cc(C)c(=O)n(C)c1-c1ccc(F)cc1Cl [Compound No. 339, 6-(2-chloro-4-fluorophenyl)-1,3-dimethyl-5-propylpyridin-2(1H)-one] | > 50% | > 50% | > 50% | < 50% | < 50% | > 50% | > 50% | > 50% |  |  |  |  |  |  |  |
| CCn1c(-c2c(F)cc(F)cc2F)c(C(O)C(F)(F)F)cc(Cl)c1=O (stereo not drawn) [Compound No. 515, 3-chloro-1-ethyl-5-(2,2,2-trifluoro-1-hydroxyethyl)-6-(2,4,6-trifluorophenyl)pyridin-2(1H)-one] | > 50% | > 50% |  |  |  |  |  |  | > 50% | < 50% | < 50% | > 50% | < 50% | > 50% |  |
| CCn1c(-c2c(F)cc(F)cc2F)c(C(OC)C(F)(F)F)cc(Cl)c1=O (stereo not drawn) [Compound No. 516, 3-Chloro-1-ethyl-5-(2,2,2-trifluoro-1-methoxyethyl)-6-(2,4,6-trifluorophenyl)pyridin-2(1H)-one] | > 50% | > 50% |  |  |  |  |  |  | > 50% | < 50% | > 50% | > 50% | > 50% | > 50% |  |
| CCn1c(-c2c(F)cc(OC)cc2F)c(C(OC)C(F)(F)F)cc(Cl)c1=O (stereo not drawn) [Compound No. 518, 3-chloro-6-(2,6-difluoro-4-methoxyphenyl)-1-ethyl-5-(2,2,2-trifluoro-1-methoxyethyl)pyridin-2(1H)-one] | < 50% | > 50% |  |  |  |  |  |  | > 50% | < 50% | > 50% | > 50% | > 50% | > 50% |  |
